Reference: patent US20240261272A1, “LPA1 ANTAGONISTS FOR TREATING INTERSTITIAL LUNG DISEASE” (Bristol-Myers Squibb Company, priority 2022, published 2024)

Key:
[1] = Phase 1 Part A single ascending dose (SAD) study in healthy participants: safety, blood pressure; assay type: in vivo, human; parameters: Mean DBP: unit not given here
Method: The study was performed in 3 parts in 112 healthy male and female participants, including 24 Japanese participants. Female participants were to be not of childbearing potential. The present study was designed to evaluate the safety and tolerability, PK, and exploratory PD of an oral suspension of Compound A. Parts A and B (Cohort B1 only) enrolled healthy participants and was conducted at a site in The Netherlands and Part B (Cohort B2 to B5) enrolled healthy non-Japanese participants and was conducted at a site in the United Kingdom (UK). Part C enrolled healthy Japanese participants and was conducted at the same site in the UK.
Part A was an SAD study in a planned number of 6 sequential dose escalation cohorts (3, 10, 30, 100, 150, or 250 mg) of 8 healthy participants (6 active+2 placebo) each, under fasted conditions. Eligible participants in Part A (excluding those in Cohort A7 [food effect (FE)/pH cohort]) received a single administration of study drug (Compound A or placebo) under fasted conditions. In Cohort A1 to Cohort A6, sentinel dosing was employed (1 active+1 placebo, followed after 48 hours by the remaining participants of the cohort [5 active+1 placebo]). […] In addition to the 6 ascending dose cohorts, a cohort of 6 healthy participants (Cohort A7; 6 active, 100 mg Compound A) was included to assess the effect of food and pH on the bioavailability of Compound A in a 3-period, open-label, fixed-sequence, crossover design (FE/pH cohort).
Physical examinations, vital sign measurements (including orthostasis testing in Cohort A6, Cohort B3 to B5, and C1 to C3 at selected time points), 12-lead electrocardiogram (ECG), and clinical laboratory evaluations were performed at selected times throughout the study. In addition, Holter monitoring was performed for the first 24 hours post dose on Day 1 in Part A (not in FE/pH cohort), and also for the first 24 hours post dose on Day 1 and Day 14 in Parts B and C. Participants were closely monitored for adverse events (AEs). Blood samples were collected for up to 14 days (follow-up visit) after (last) study drug administration for PK analysis. In addition, blood and urine were collected for exploratory biomarker assessments and for biobanking of samples for potential analyses. Urine was collected for potential PK analysis for up to 96 hours after a single dose of Compound A or placebo was administered in the SAD part, and for up to 24 hours after the first (morning) dose of study drug on Day 1 and for up to 24 hours after the last (morning) dose of study drug on Day 14 in the MAD parts.

participants with PPF = experiment: Phase 2 study, PPF cohort: efficacy (rate of FVC decline in % of predicted, FVC); assay type: in vivo, human; settings: for Relative Reduction: table title, dose not given
Method: A total of 123 participants with PPF were randomized. Participants (age ≥21 years) were randomized (1:1:1) to receive 30 mg or 60 mg Compound A or PBO twice daily for 26 weeks. […] Immunosuppressive medications (mycophenolate mofetil, mycophenolic acid, azathioprine and/or tacrolimus) were permitted only if dosing is stable for ≥6 months prior to screening. If receiving antifibrotic agents pirfenidone or nintedanib, patients had to receive a stable dosage for ≥3 months prior to screening and during the screening period; if not receiving pirfenidone or nintedanib, patients had to be naive to both drugs or not have received either 4 weeks prior to Day 1. A total of 47 (38.2%) subjects were receiving antifibrotic treatment (with or without immunosuppression therapy). Of those subjects, 34 were being treated with nintedanib and 13 with pirfenidone. Participants were stratified by usual interstitial pneumonia (UIP) pattern (presence versus absence) and background therapy (antifibrotics +/−ILD-targeted immunosuppression versus ILD-targeted immunosuppression alone versus none).UIP pattern was present in 52% of subjects and unclassifiable ILD was he most common disease categorization.
The study was not powered to detect statistical significance (no formal testing). No target effect size was defined in the study design. There were two estimand approaches for analysis: Treatment Policy: Effect of treatment with dose reduction as part of treatment regimen.
While-On Treatment: Effect of treatment without dose reduction.
The main efficacy endpoint, rate of FVC decline (in % of predicted) from baseline to wk-26 in the PPF cohort, was estimated using a linear mixed-effects model utilizing all FVC timepoints. It was analyzed under a primary estimand (utilizing all data, treatment policy strategy), and under supplementary estimand (utilizing all data up to the point of dose reduction, while-on-treatment strategy). Analysis was performed in the overall population as well as in sub-groups by 1) background anti-fibrotic treatment or not 2) UIP radiographic pattern (presence or not). The mean baseline ppFVC was 66.700 for the PPF cohort.

CCCN(C)C(=O)OCc1c(-c2ccc(O[C@H]3CCC[C@H](C(=O)O)C3)c(C)n2)nnn1C [Compound A, (1S,3S)-3-((2-methyl-6-(1-methyl-5-(((methyl(propyl)carbamoyl)-oxy)methyl)-1H-1,2,3-triazol-4-yl)pyridin-3-yl)oxy)cyclohexane-1-carboxylic acid]
Mean DBP ([1]; 100 mg Fasted + Famotidine, D 1 2 h): 67.2 | Mean DBP ([1]; 100 mg Fasted + Famotidine, D 1 4 h): 65.3 | Mean DBP ([1]; 100 mg Fasted + Famotidine, D 1 8 h): 63.2 | Mean DBP ([1]; 100 mg Fasted + Famotidine, D 2 24 h): 71.7 | Mean DBP ([1]; 100 mg Fasted, D 1 2 h): 67.2 | Mean DBP ([1]; 100 mg Fasted, D 1 4 h): 64.2 | Mean DBP ([1]; 100 mg Fasted, D 1 8 h): 63.0 | Mean DBP ([1]; 100 mg Fasted, D 2 24 h): 69.3 | Mean DBP ([1]; 100 mg Fed, D 1 2 h): 57.2 | Mean DBP ([1]; 100 mg Fed, D 1 4 h): 58.2 | Mean DBP ([1]; 100 mg Fed, D 1 8 h): 58.8 | Mean DBP ([1]; 100 mg Fed, D 2 24 h): 69.3 | Mean DBP ([1]; SAD 3 mg, D 1 2 h): 68.3 | Mean DBP ([1]; SAD 3 mg, D 1 4 h): 69.5 | Mean DBP ([1]; SAD 3 mg, D 1 8 h): 68.0 | Mean DBP ([1]; SAD 3 mg, D 2 24 h): 68.7 | Mean DBP ([1]; SAD 10 mg, D 1 2 h): 67.7 | Mean DBP ([1]; SAD 10 mg, D 1 4 h): 68.7 | Mean DBP ([1]; SAD 10 mg, D 1 8 h): 63.0 | Mean DBP ([1]; SAD 10 mg, D 2 24 h): 71.7 | Mean DBP ([1]; SAD 30 mg, D 1 2 h): 66.2 | Mean DBP ([1]; SAD 30 mg, D 1 4 h): 65.2 | Mean DBP ([1]; SAD 30 mg, D 1 8 h): 65.2 | Mean DBP ([1]; SAD 30 mg, D 2 24 h): 71.0 | Mean DBP ([1]; SAD 100 mg, D 1 2 h): 59.0 | Mean DBP ([1]; SAD 100 mg, D 1 4 h): 58.7 | Mean DBP ([1]; SAD 100 mg, D 1 8 h): 56.3 | Mean DBP ([1]; SAD 100 mg, D 2 24 h): 66.0 | Mean DBP ([1]; SAD 150 mg, D 1 2 h): 58.2 | Mean DBP ([1]; SAD 150 mg, D 1 4 h): 56.0 | Mean DBP ([1]; SAD 150 mg, D 1 8 h): 57.8 | Mean DBP ([1]; SAD 150 mg, D 2 24 h): 66.2 | dose-limiting events (in words) ([1]; SAD Cohort A6, 250 mg, sentinel participants): dose-limiting events observed in a sentinel participant | effect on SBP and DBP (in words) ([1]; SAD cohorts): decreased SBP and DBP dose dependently, reversibly, and mostly asymptomatically | safety and tolerability (in words) ([1]; single and multiple dose oral administration to healthy participants): generally safe and well tolerated | dose response (in words) (participants with PPF; PPF cohort, 30 mg and 60 mg): Clear dose response | mean observed change from baseline in ppFVC percentage and FVC versus placebo (in words) (participants with PPF; PPF cohort, 30 mg and 60 mg, FIGS. 10 and 11): show improvement over placebo at week 8 | consistency of efficacy across sub-groups (in words) (participants with PPF; PPF cohort, irrespective of background antifibrotics or of UIP pattern): Efficacy consistent in all sub-groups | FVC (% Predicted) Rate of Decline, Difference (participants with PPF; PPF, 30 mg - placebo, UIP Present, Primary Estimand): 0.88 % Predicted | FVC (% Predicted) Rate of Decline, Slope (participants with PPF; PPF, 30 mg, Not Receiving Antifibrotic Treatment, Supplementary Estimand): −2.83 % Predicted | FVC (% Predicted) Rate of Decline, Slope (participants with PPF; PPF, 30 mg, Overall Population, Primary Estimand - Treatment Policy): −2.7 % Predicted | FVC (% Predicted) Rate of Decline, Slope (participants with PPF; PPF, 30 mg, Receiving Antifibrotic Treatment, Supplementary Estimand): −1.8 % Predicted | FVC (% Predicted) Rate of Decline, Slope (participants with PPF; PPF, 30 mg, UIP Absent, Supplementary Estimand): −2.24 % Predicted | FVC (% Predicted) Rate of Decline, Slope (participants with PPF; PPF, 30 mg, UIP Present, Primary Estimand): −3.07 % Predicted | FVC (% Predicted) Rate of Decline, Difference (participants with PPF; PPF, 60 mg - placebo, UIP Absent, Supplementary Estimand): 3.8 % Predicted | FVC (% Predicted) Rate of Decline, Slope (participants with PPF; PPF, 60 mg, Not Receiving Antifibrotic Treatment, Supplementary Estimand): −1.56 % Predicted | FVC (% Predicted) Rate of Decline, Slope (participants with PPF; PPF, 60 mg, Overall Population, Supplementary Estimand - While On Treatment): −1.3 % Predicted | FVC (% Predicted) Rate of Decline, Slope (participants with PPF; PPF, 60 mg, Receiving Antifibrotic Treatment, Supplementary Estimand): −1.1 % Predicted | FVC (% Predicted) Rate of Decline, Slope (participants with PPF; PPF, 60 mg, UIP Absent, Supplementary Estimand): −0.7 % Predicted | FVC (% Predicted) Rate of Decline, Slope (participants with PPF; PPF, 60 mg, UIP Present, Primary Estimand): −1.46 % Predicted | Treatment difference 60 mg v placebo, rate of decline in ppFVC baseline to Week 26 (participants with PPF; PPF, Non UIP subgroup): 3.80 | Relative Reduction (participants with PPF; PPF, Not Receiving Antifibrotic Treatment, Primary Estimand): Estimand - Treatment Policy (Relative Reduction = 68.5%) | Relative Reduction (participants with PPF; PPF, Not Receiving Antifibrotic Treatment, Supplementary Estimand): Estimand - While on Treatment (Relative Reduction = 62.6%) | Relative Reduction (participants with PPF; PPF, Receiving Antifibrotic Treatment, Primary Estimand): Estimand - Treatment Policy (Relative Reduction = 85%) | Relative Reduction (participants with PPF; PPF, Receiving Antifibrotic Treatment, Supplementary Estimand): Estimand - While on Treatment (Relative Reduction = 74.9%) | Relative Reduction (participants with PPF; PPF, UIP Absent, Primary Estimand): Policy Strategy (Relative Reduction = 83.6%) | Relative Reduction (participants with PPF; PPF, UIP Absent, Supplementary Estimand): While on Treatment (Relative Reduction = 84.4%) | Relative Reduction (participants with PPF; PPF, UIP Present, Primary Estimand): Policy Strategy (Relative Reduction = 63%) | Relative Reduction (participants with PPF; PPF, UIP Present, Supplementary Estimand): While on Treatment (Relative Reduction = 54%)
